Biological target: T1, USP28 (USP28-5(1-1077)-TEV-6*His; LifeSensors) (Homo sapiens, UniProt Q96RU2)
T1 construct: construct USP28 (USP28-5(1-1077)-TEV-6*His; LifeSensors); TEV cleavage site (C); 6xHis (C); purchased LifeSensors
T1 sequence (Q96RU2 1-1077): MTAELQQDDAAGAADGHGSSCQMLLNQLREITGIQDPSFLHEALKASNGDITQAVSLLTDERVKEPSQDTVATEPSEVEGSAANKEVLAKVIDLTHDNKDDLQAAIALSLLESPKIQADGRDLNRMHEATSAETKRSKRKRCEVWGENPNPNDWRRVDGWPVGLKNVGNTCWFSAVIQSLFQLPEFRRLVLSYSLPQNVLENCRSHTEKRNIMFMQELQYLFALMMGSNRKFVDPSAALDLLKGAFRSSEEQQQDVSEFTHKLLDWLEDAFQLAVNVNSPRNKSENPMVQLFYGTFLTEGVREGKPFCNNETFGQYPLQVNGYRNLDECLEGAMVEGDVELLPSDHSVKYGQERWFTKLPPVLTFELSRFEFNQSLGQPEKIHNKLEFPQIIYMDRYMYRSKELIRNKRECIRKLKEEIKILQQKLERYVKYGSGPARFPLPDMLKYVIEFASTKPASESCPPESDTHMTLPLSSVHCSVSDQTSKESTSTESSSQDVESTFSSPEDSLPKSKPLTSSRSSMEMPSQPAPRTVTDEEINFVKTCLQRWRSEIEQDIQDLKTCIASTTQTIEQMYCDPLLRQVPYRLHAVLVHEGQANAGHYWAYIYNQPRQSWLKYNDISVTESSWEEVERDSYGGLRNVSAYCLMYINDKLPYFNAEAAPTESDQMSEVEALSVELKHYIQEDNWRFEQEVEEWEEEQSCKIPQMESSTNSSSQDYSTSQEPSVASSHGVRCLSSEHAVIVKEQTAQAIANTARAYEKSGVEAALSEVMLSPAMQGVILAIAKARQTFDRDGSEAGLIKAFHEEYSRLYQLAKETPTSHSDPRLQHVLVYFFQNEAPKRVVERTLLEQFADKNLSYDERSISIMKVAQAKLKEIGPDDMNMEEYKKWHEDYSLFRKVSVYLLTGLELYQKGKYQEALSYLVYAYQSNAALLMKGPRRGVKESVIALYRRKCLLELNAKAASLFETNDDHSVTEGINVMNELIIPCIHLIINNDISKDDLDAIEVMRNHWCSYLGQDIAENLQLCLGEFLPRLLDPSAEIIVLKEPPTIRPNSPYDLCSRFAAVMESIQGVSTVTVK
Assay: Ubiquitin-Rhodamine 110 Assay for USP28 Activity, Example A-1(b)
Type: biochemical
Experimental: Example A-1(b): Biochemical Assay: Ubiquitin-Rhodamine 110 Assay for USP28 Activity
Each assay was performed in a final volume of 20 μL in assay buffer containing 20 mM Tris-HCl (pH 8.0, (1M Tris-HCl, pH 8.0 solution; Corning 46-031-CM)), 2 mM CaCl2) (1M Calcium Chloride solution; Sigma #21114) 2 mM BME (2-Mercaptoethanol; Sigma 63689-25ML-F), 0.01% Prionex ([…] filtered, Sigma #G-0411), and 0.01% Triton X-100. Stock compound solutions were stored at −20° C. as 10 mM in DMSO. Up to 1 month prior to the assay, 2 mM test compounds were pre-dispensed into assay plates (Black, low volume; Corning #3820) and frozen at −20° C. Prestamped assay plates were allowed to come to room temperature on the day of the assay. For the screen, 100 nL of 2 mM was pre-dispensed for a final screening concentration of 10 μM (DMSO(fc)=0.5%). […] Plates were incubated stacked for 90 minutes at room temperature before fluorescence was read on the Envision (Excitation at 485 nm and Emission at 535 nm; Perkin Elmer) or on the PheraSTAR (Excitation at 485 nm and Emission at 535 nm; BMG Labtech).
For follow-up studies, each assay was performed in a final volume of 15 μL in assay buffer containing 20 mM Tris-HCl (pH 8.0, (1M Tris-HCl, pH 8.0 solution; Corning 46-031-CM)), 3 mM BME (2-Mercaptoethanol; Sigma 63689-25ML-F), 0.03% BGG (0.22 μM filtered, Sigma, G7516-25G), and 0.01% Triton X-100 (Sigma, T9284-10L). Nanoliter quantities of either an 8-point or 10-point, 3-fold serial dilution in DMSO was pre-dispensed into assay plates (Perkin Elmer, ProxiPlate-384 F Plus, #) for a final test concentration of either 25 μM to 11 nM or 25 μM to 1.3 nM, respectively. Enzyme USP28, construct USP28 (USP28-5(1-1077)-TEV-6*His; LifeSensors) concentration and incubation times were optimized for the maximal signal-to-background while maintaining initial velocity conditions at a fixed substrate concentration. The final concentration of the enzyme in the assay was 75 pM. Final substrate (Ub-Rh110; Ubiquitin-Rhodamine 110, R&D Systems #U-555) concentration was 25 nM with [Ub-Rh110]<<Km. 5 μL of 2× enzyme was added to assay plates (pre-stamped with compound) preincubated with USP28 for 30 minutes and then 5 μL of 2×Ub-Rh110 was added to assay plates. Plates were incubated stacked for 20 minutes at room temperature before 5 μL of stop solution was added (final concentration of 10 mM citric acid (Sigma, 251275-500G)). Fluorescence was read on the Envision (Excitation at 485 nm and Emission at 535 nm; Perkin Elmer) or on the PheraSTAR (Excitation at 485 nm and Emission at 535 nm; BMG Labtech).
For assay formats Example A-1(a), A-1(b), and A-2, data were reported as percent inhibition compared with control wells based on the following equation: % inh=1−((FLU−AveLow)/(AveHigh−AveLow)) where FLU=measured Fluorescence, AveLow=average Fluorescence of no enzyme control (n=16), and AveHigh=average Fluorescence of DMSO control (n=16). IC50 values were determined by curve fitting of the standard 4 parameter logistic fitting algorithm included in the Activity Base software package: IDBS XE Designer Model 205. Data is fitted using the Levenburg Marquardt algorithm.

[1] = Ubiquitin-Rhodamine 110 assay, format Example A-1(b)
[2] = Ubiquitin-Rhodamine 110 assay, Example A-1(b)

Cc1cnc2c(N)c(C(=O)N[C@@H]3CCc4cc(N5C[C@@H]6C[C@H]5CN6)ccc4C3)sc2n1 (single isomer, unassigned) [Example 11-30]
USP28 A-1(b) IC50 range [1]: ++ (0.2-2 μM)

Cc1ccc2c(N)c(C(=O)N[C@@H]3CCc4cc(N5CCNCC5)ccc4C3)sc2n1 (single isomer, unassigned) [Example 11-22]
USP28 A-1(b) IC50 range [2]: ++ (0.2-2 μM)

Cc1cnc2c(N)c(C(=O)N[C@@H]3CCc4cc(N5CCNCC5)ccc4C3)sc2n1 (single isomer, unassigned) [Example 11-20]
USP28 A-1(b) IC50 range [2]: + (>2 μM)

Cc1ccc2c(N)c(C(=O)N[C@H]3CCc4cc(N5CC6CNCC(C5)O6)cc(F)c4C3)sc2n1 (single isomer, unassigned) [Example 11-39]
USP28 A-1(b) IC50 range [1]: ++ (0.2-2 μM)

Cc1cnc2c(N)c(C(=O)N[C@@H]3CCc4c(C#N)c(N5CCNCC5)cc(F)c4C3)sc2n1 [Example 14-11, (R)-7-amino-N-(5-cyano-8-fluoro-6-(piperazin-1-yl)-1,2,3,4-tetrahydronaphthalen-2-yl)-3-methylthieno[2,3-b]pyrazine-6-carboxamide]
USP28 A-1(b) IC50 range [1]: ++ (0.2-2 μM)

Cc1ccc2c(N)c(C(=O)N[C@@H]3CCc4cc(N5CC6CNCC(C5)O6)cc(F)c4C3)sc2n1 (single isomer, unassigned) [Example 11-40]
USP28 A-1(b) IC50 range [1]: ++++ (0.001-0.05 μM)

Cc1ccc2c(N)c(C(=O)N[C@H]3CCc4cc(N5CCNCC5)ccc4C3)sc2n1 (single isomer, unassigned) [Example 11-21]
USP28 A-1(b) IC50 range [2]: ++ (0.2-2 μM)

Cc1cnc2c(N)c(C(=O)N[C@H]3CCc4cc(N5C[C@H]6C[C@@H]5CN6)ccc4C3)sc2n1 (single isomer, unassigned) [Example 11-31]
USP28 A-1(b) IC50 range [1]: ++ (0.2-2 μM)

Cc1cnc2c(N)c(C(=O)N[C@H]3CCc4cc(N5C[C@@H]6C[C@H]5CN6)ccc4C3)sc2n1 (single isomer, unassigned) [Example 11-29]
USP28 A-1(b) IC50 range [2]: ++ (0.2-2 μM)

Cc1ccc2c(N)c(C(=O)N[C@H]3COc4cc(N5CCNC6(COC6)C5)ccc4C3)sc2n1 [Example 4-1, (R)—N-(7-(2-oxa-5,8-diazaspiro[3.5]nonan-8-yl)chroman-3-yl)-3-amino-6-methylthieno[2,3-b]pyridine-2-carboxamide]
USP28 A-1(b) IC50 range [2]: ++ (0.2-2 μM)

Cc1ccc2c(N)c(C(=O)N[C@@H]3COc4cc(N5CCN[C@@H](C)[C@H]5C)ccc4C3)sc2n1 (single isomer, unassigned) [Example 1-8]
USP28 A-1(b) IC50 range (Ub-Rh110 assay, Example A-1(b)): ++++ (0.001-0.05 μM)

CN[C@@H]1CCN(c2ccc3c(c2)CC[C@@H](NC(=O)c2sc4nc(C)cnc4c2N)C3)C1 (single isomer, unassigned) [Example 11-28]
USP28 A-1(b) IC50 range [2]: + (>2 μM)

Cc1ccc2c(N)c(C(=O)N[C@H]3COc4cc(N5CCNCC5)ccc4[C@@H]3C)sc2n1 (single isomer, unassigned) [Example 11-16]
USP28 A-1(b) IC50 range [2]: + (>2 μM)

CN[C@@H]1CCN(c2ccc3c(c2)CC[C@H](NC(=O)c2sc4nc(C)cnc4c2N)C3)C1 (single isomer, unassigned) [Example 11-27]
USP28 A-1(b) IC50 range [2]: ++ (0.2-2 μM)

CN[C@H]1CCN(c2ccc3c(c2)CC[C@@H](NC(=O)c2sc4nc(C)cnc4c2N)C3)C1 (single isomer, unassigned) [Example 11-26]
USP28 A-1(b) IC50 range [2]: + (>2 μM)

Cc1cnc2c(N)c(C(=O)N[C@H]3CCc4cc(N5CCNCC(F)(F)C5)ccc4C3)sc2n1 [Example 454, (S)-7-amino-N-(6-(6,6-difluoro-1,4-diazepan-1-yl)-1,2,3,4-tetrahydronaphthalen-2-yl)-3-methylthieno[2,3-b]pyrazine-6-carboxamide]
USP28 A-1(b) IC50 range [2]: +++ (0.05-0.2 μM)

Cc1cnc2c(N)c(C(=O)N[C@H]3CCc4cc(N5CCNCC5)cc(F)c4C3)sc2n1 (single isomer, unassigned) [Example 11-38]
USP28 A-1(b) IC50 range [1]: +++ (0.05-0.2 μM)

O=C(N[C@H]1COc2cc(N3CCNCC3)ccc2C1)c1cnn2c(Br)cccc12 [Example 457, (R)-7-bromo-N-(7-(piperazin-1-yl)chroman-3-yl)pyrazolo[1,5-a]pyridine-3-carboxamide]
USP28 A-1(b) IC50 range [2]: ++ (0.2-2 μM)
